Experiment: xn = mol fraction of the nth substance listed
Conditions: 100.7 kPa, Liquid; for viscosity: Falling or rolling sphere viscometry; for speed of sound: Frequency=3 MHz, Sing-around technique in a fixed-path interferometer; for mass density: Vibrating tube method

CCCC[n+]1ccn(C)c1.O=S(=O)([N-]S(=O)(=O)C(F)(F)F)C(F)(F)F + CCCCOC(C)=O
Conditions	mass density [kg/m3]	speed of sound [m/s]	viscosity [mPa·s]
298.15 K, x1 = 0.0252	–	1187.2	–
298.15 K, x1 = 0.0521	–	1185.1	–
298.15 K, x1 = 0.0754	–	1183.4	–
298.15 K, x1 = 0.11	1002.7	1182	1.65
298.15 K, x1 = 0.2089	1091.17	1182.3	3.16
298.15 K, x1 = 0.2993	1157.05	1184.9	5.48
298.15 K, x1 = 0.393	1214.08	1189	8.7
298.15 K, x1 = 0.4847	1261.35	1194	13
298.15 K, x1 = 0.5739	1300.9	1199.2	18.01
298.15 K, x1 = 0.687	1344.53	1206.6	25.24
298.15 K, x1 = 0.7791	1375.41	1212.7	31.73
298.15 K, x1 = 0.9056	1412.56	1221.6	41.39
298.15 K, x1 = 1	1436.82	1227.8	50.04
303.15 K, x1 = 0.0252	–	1167.5	–
303.15 K, x1 = 0.0521	–	1165.2	–
303.15 K, x1 = 0.0754	–	1164.2	–
303.15 K, x1 = 0.11	997.7	1163.8	1.32
303.15 K, x1 = 0.2089	1086.13	1165.8	2.47
303.15 K, x1 = 0.2993	1152.05	1169.6	4.19
303.15 K, x1 = 0.393	1209.12	1174.7	6.7
303.15 K, x1 = 0.4847	1256.55	1180.5	10
303.15 K, x1 = 0.5739	1296	1186.3	13.81
303.15 K, x1 = 0.687	1339.68	1194.3	19.35
303.15 K, x1 = 0.7791	1370.57	1201.8	25.04
303.15 K, x1 = 0.9056	1407.82	1211.6	33.3
303.15 K, x1 = 1	1431.98	1217.5	40.72
308.15 K, x1 = 0.0252	–	1147.2	–
308.15 K, x1 = 0.0521	–	1146.7	–
308.15 K, x1 = 0.0754	–	1146.3	–
308.15 K, x1 = 0.11	992.65	1145.8	1.08
308.15 K, x1 = 0.2089	1081.08	1149.4	2
308.15 K, x1 = 0.2993	1147.06	1154.5	3.3
308.15 K, x1 = 0.393	1204.12	1160.6	5.35
308.15 K, x1 = 0.4847	1251.44	1167.2	7.85
308.15 K, x1 = 0.5739	1291.12	1173.6	10.8
308.15 K, x1 = 0.687	1335.03	1182.2	15.26
308.15 K, x1 = 0.7791	1365.95	1189.1	20
308.15 K, x1 = 0.9056	1403.1	1199.2	27.56
308.15 K, x1 = 1	1427.16	1205.2	33.73
313.15 K, x1 = 0.0252	–	1128.5	–
313.15 K, x1 = 0.0521	–	1127	–
313.15 K, x1 = 0.0754	–	1127.2	–
313.15 K, x1 = 0.11	987.68	1127.8	0.96
313.15 K, x1 = 0.2089	1076.25	1133.2	1.72
313.15 K, x1 = 0.2993	1142.16	1139.5	2.81
313.15 K, x1 = 0.393	1199.24	1146.2	4.65
313.15 K, x1 = 0.4847	1246.74	1153.9	6.64
313.15 K, x1 = 0.5739	1286.33	1161	8.59
313.15 K, x1 = 0.687	1330.2	1170.2	12.16
313.15 K, x1 = 0.7791	1361.33	1178.5	15.96
313.15 K, x1 = 0.9056	1398.49	1188.4	22.61
313.15 K, x1 = 1	1422.37	1194.4	28.28
318.15 K, x1 = 0.0252	–	1108.2	–
318.15 K, x1 = 0.0521	–	1109.2	–
318.15 K, x1 = 0.0754	–	1109.6	–
318.15 K, x1 = 0.11	982.52	1110	0.8
318.15 K, x1 = 0.2089	1071.24	1117.1	1.49
318.15 K, x1 = 0.2993	1137.09	1124.6	2.35
318.15 K, x1 = 0.393	1194.31	1132	3.96
318.15 K, x1 = 0.4847	1241.85	1140.8	5.5
318.15 K, x1 = 0.5739	1281.71	1148.4	6.92
318.15 K, x1 = 0.687	1325.49	1159.3	9.96
318.15 K, x1 = 0.7791	1356.79	1168	13.17
318.15 K, x1 = 0.9056	1393.84	1178.5	18.87
318.15 K, x1 = 1	1417.6	1184.5	24.01
323.15 K, x1 = 0.0252	–	1089.6	–
323.15 K, x1 = 0.0521	–	1090.2	–
323.15 K, x1 = 0.0754	–	1091.3	–
323.15 K, x1 = 0.11	977.62	1092.3	0.83
323.15 K, x1 = 0.2089	1066.34	1101.2	1.37
323.15 K, x1 = 0.2993	1132.21	1109.9	2
323.15 K, x1 = 0.393	1189.38	1118.7	2.93
323.15 K, x1 = 0.4847	1236.98	1127.9	4.14
323.15 K, x1 = 0.5739	1276.92	1136	5.48
323.15 K, x1 = 0.687	1320.8	1147.5	8.24
323.15 K, x1 = 0.7791	1352.11	1155.7	10.74
323.15 K, x1 = 0.9056	1389.18	1166.3	15.82
323.15 K, x1 = 1	1412.86	1171.3	20.32
